Laboratory results reported in ChEMBL document CHEMBL1201862, “PubChem BioAssay data set” (2004).
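Exposure lasted 48 hours, with cells grown in 96-well plates and compounds tested at five concentrations. GI50 = concentration required for 50% inhibition of growth.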 Calls of active or inactive are those of the source. Cut-off read from the data, not from the text of the source: active = GI50 up to about 1.1 µM and inactive = higher.

How the values were obtained:
Assay in all cases: NCI tumour cell line growth inhibition, 48 h
[1] = tested on: RPMI-8226
[2] = tested on: SK-MEL-28
[3] = tested on: ACHN
[4] = tested on: 786-0
[5] = tested on: K562
[6] = tested on: NCI-H23
[7] = tested on: SF-539
[8] = tested on: SNB-19
[9] = tested on: MOLT-4
[10] = tested on: U-251
[11] = tested on: SK-OV-3
[12] = tested on: OVCAR-4
[13] = tested on: KM12
[14] = tested on: A498
[15] = tested on: OVCAR-8
[16] = tested on: COLO 205
[17] = tested on: MDA-MB-435
[18] = tested on: DU-145
[19] = tested on: MDA-MB-231

Measured: GI50

O=c1nc(-c2ccccc2)c2c3c(cccn13)CCC2
inactive: [1] > 100 µM | [2] > 100 µM | [3] > 100 µM | [4] > 100 µM | [5] > 100 µM | [6] > 100 µM | [7] > 100 µM | [8] > 100 µM | [9] > 100 µM | [10] > 100 µM | [11] > 100 µM | [12] > 100 µM | [13] > 100 µM | [14] 92 µM | [15] > 100 µM

CN1c2ccccc2NC(CC(=O)O)C2CC=CN21 (stereo not given)
inactive: [1] > 100 µM | [2] > 100 µM | [3] > 100 µM | [4] > 100 µM | [5] > 100 µM | [6] > 100 µM | [7] > 100 µM | [8] > 100 µM | [9] > 100 µM | [16] > 100 µM | [10] > 100 µM | [11] > 100 µM | [12] > 100 µM | [13] > 100 µM | [14] > 100 µM | [15] > 100 µM

O=C(O/N=C1/CCC/C1=C\c1ccccc1)c1ccc(Cl)cc1
inactive: [1] > 65.9 µM | [2] > 100 µM | [3] 60.5 µM | [4] 51.8 µM | [5] > 94.2 µM | [6] 50.8 µM | [7] 25.2 µM | [8] > 100 µM | [9] > 100 µM | [16] > 100 µM | [10] 46.6 µM | [11] > 70.3 µM | [12] 25.8 µM | [13] > 100 µM | [14] > 60.4 µM | [15] > 71.6 µM

COc1cccc2c1C1(O)C2CCCC12OCCCO2 (stereo not given)
inactive: [1] > 100 µM | [2] > 100 µM | [3] > 100 µM | [4] > 100 µM | [5] > 100 µM | [6] > 100 µM | [7] > 100 µM | [8] > 100 µM | [9] > 100 µM | [16] > 100 µM | [10] > 100 µM | [11] > 100 µM | [12] > 100 µM | [13] > 100 µM | [14] > 100 µM | [15] > 100 µM

COc1cc(C(C)O)c[n+](Cc2ccccc2)c1 (stereo not given)
inactive: [1] > 100 µM | [2] > 100 µM | [3] > 100 µM | [4] > 100 µM | [5] > 100 µM | [6] > 100 µM | [7] > 100 µM | [8] > 100 µM | [9] > 100 µM | [16] > 100 µM | [10] > 100 µM | [11] > 100 µM | [12] > 100 µM | [13] > 100 µM | [14] > 100 µM | [15] > 31.6 µM

COC(=O)C1Cc2c(n(C)c3ccccc23)C(CCC(=O)O)N1Cc1ccccc1 (stereo not given)
inactive: [1] 16.1 µM | [2] 28.4 µM | [3] 19.6 µM | [4] > 100 µM | [5] 37 µM | [6] 26.4 µM | [7] 22.4 µM | [8] 33.2 µM | [9] 27.5 µM | [16] 27 µM | [10] 37.7 µM | [11] 36.5 µM | [12] 33.7 µM | [13] 28.4 µM | [14] 15.2 µM | [15] 39.4 µM

O=C(CC1(O)C(=O)Nc2ccccc21)c1ccc(O)cc1 (stereo not given)
inactive: [1] > 100 µM | [2] > 100 µM | [3] > 100 µM | [4] > 100 µM | [5] > 100 µM | [6] > 100 µM | [7] > 100 µM | [8] > 100 µM | [9] > 100 µM | [16] > 100 µM | [10] > 100 µM | [11] > 100 µM | [12] > 100 µM | [13] > 100 µM | [14] > 100 µM

Oc1ncnc2c1nnn2CCCn1nnc2c(O)ncnc21
inactive: [1] > 100 µM | [2] > 100 µM | [3] > 100 µM | [4] > 100 µM | [5] > 100 µM | [6] > 100 µM | [7] > 100 µM | [8] > 100 µM | [9] > 100 µM | [16] > 100 µM | [10] > 100 µM | [11] > 100 µM | [12] > 100 µM | [13] > 100 µM | [14] > 100 µM | [15] > 100 µM

COc1cc(C2C3C=CC=C4CC=CC(=C43)C3CCC(=O)N32)cc(OC)c1OC (stereo not given)
inactive: [1] > 100 µM | [2] > 100 µM | [3] > 100 µM | [4] > 100 µM | [5] > 100 µM | [7] > 100 µM | [8] > 100 µM | [9] > 100 µM | [17] > 100 µM | [18] > 100 µM | [10] > 100 µM | [11] 64 µM | [19] > 100 µM | [13] > 100 µM | [14] > 100 µM | [15] > 100 µM

COC(=O)c1c(C(=O)OC)c(-c2ccccc2)n(-c2ccccc2)c(=O)c1-c1ccccc1
inactive: [1] > 100 µM | [4] 32.4 µM | [5] > 100 µM | [6] 72.8 µM | [7] 17.7 µM | [8] 67.9 µM | [9] > 100 µM | [16] > 100 µM | [10] 42.9 µM | [11] 53.5 µM | [12] 25.2 µM | [13] > 100 µM | [14] > 100 µM | [15] 51.4 µM

COc1ccc(Cc2cc3c(cc2OCC(=O)O)OCO3)cc1
inactive: [1] > 100 µM | [2] > 100 µM | [3] > 100 µM | [4] > 100 µM | [5] > 100 µM | [6] > 100 µM | [7] > 100 µM | [8] > 100 µM | [9] > 100 µM | [16] > 100 µM | [11] > 100 µM | [12] > 100 µM | [13] > 100 µM | [14] > 100 µM | [15] > 100 µM

O=C(CSCC(=O)N/N=C\c1ccc(-c2ccccc2)cc1)N/N=C\c1ccc(-c2ccccc2)cc1
inactive: [2] 29.6 µM | [3] 23.9 µM | [4] 33.2 µM | [5] 25.8 µM | [6] 17.8 µM | [7] 19.4 µM | [8] 26.2 µM | [9] 25.3 µM | [17] 18.8 µM | [16] 13.6 µM | [18] 33 µM | [10] 17.7 µM | [11] 18.9 µM | [19] 10.7 µM | [12] 20.7 µM | [13] 17.9 µM | [15] 24.6 µM

O=CN/C=C/c1ccccc1
inactive: [1] > 100 µM | [2] > 100 µM | [3] > 100 µM | [4] > 100 µM | [5] > 31.6 µM | [6] > 100 µM | [7] > 100 µM | [8] > 100 µM | [9] > 100 µM | [16] > 63.2 µM | [18] > 100 µM | [10] > 100 µM | [11] > 100 µM | [12] > 100 µM | [13] > 100 µM | [14] > 100 µM | [15] > 100 µM
